Columns and labels:
[1] = biological target: Casein kinase II subunit alpha (Homo sapiens) (UniProt P68400); details: Compound concentration 1000.0 nM
[2] = biological target: Mitogen-activated protein kinase kinase kinase kinase 5 (Homo sapiens) (UniProt Q9Y4K4); details: Compound concentration 1000.0 nM
[3] = biological target: Beta-2 adrenergic receptor (Rattus norvegicus) (UniProt P10608); assay: BETA/R Eurofins-Panlabs selectivity data (BI); details: Compound concentration 10.0 uM
[4] = biological target: GABA-A receptor; anion channel (Rattus norvegicus) (UniProt O09028+P15431+P18506+P18508+P19969+P20236+P23574+P23576+P28471+P28473+P30191+P62813+P63079+P63138+Q91ZM7+Q9ES14); details: Compound concentration 10.0 uM
[5] = biological target: Serine/threonine-protein kinase 25 (Homo sapiens) (UniProt O00506); details: Compound concentration 1000.0 nM
[6] = biological target: Activin receptor type-1 (Homo sapiens) (UniProt Q04771); details: Compound concentration 1000.0 nM
[7] = biological target: Voltage-dependent L-type calcium channel subunit alpha-1C (diltiazem site) (Rattus norvegicus, UniProt P22002); assay: CA+/DILSI/RA Eurofins-Panlabs selectivity data (BI); details: compound concentration 10 uM, read-out: % Ctrl
[8] = biological target: Sodium channel regulatory subunit beta-1 (Rattus norvegicus) (UniProt Q00954); assay: NA+/SITE2/RA Eurofins-Panlabs selectivity data (BI)
[9] = biological target: Sodium-dependent serotonin transporter (Homo sapiens) (UniProt P31645); assay: 5HTTRANS/HU Eurofins-Panlabs selectivity data (BI); details: Compound concentration 10.0 uM
[10] = biological target: 5-hydroxytryptamine receptor 5A (Homo sapiens) (UniProt P47898); assay: 5HT5A/HU Eurofins-Panlabs selectivity data (BI); details: Compound concentration 10.0 uM
[11] = biological target: Myosin-IIIa (Homo sapiens) (UniProt Q8NEV4); details: Compound concentration 1000.0 nM
[12] = biological target: Phosphatidylinositol 5-phosphate 4-kinase type-2 gamma (Homo sapiens) (UniProt Q8TBX8); details: Compound concentration 1000.0 nM
[13] = biological target: Mitogen-activated protein kinase kinase kinase 19 (Homo sapiens) (UniProt Q56UN5); details: Compound concentration 1000.0 nM
[14] = biological target: BDNF/NT-3 growth factors receptor (Homo sapiens) (UniProt Q16620); details: Compound concentration 1000.0 nM
[15] = biological target: T1, 5-hydroxytryptamine receptor 3A (Homo sapiens) (UniProt P46098); assay: 5HT3/HU Eurofins-Panlabs selectivity data (BI); details: Compound concentration 10.0 uM
T1 sequence (whole entry): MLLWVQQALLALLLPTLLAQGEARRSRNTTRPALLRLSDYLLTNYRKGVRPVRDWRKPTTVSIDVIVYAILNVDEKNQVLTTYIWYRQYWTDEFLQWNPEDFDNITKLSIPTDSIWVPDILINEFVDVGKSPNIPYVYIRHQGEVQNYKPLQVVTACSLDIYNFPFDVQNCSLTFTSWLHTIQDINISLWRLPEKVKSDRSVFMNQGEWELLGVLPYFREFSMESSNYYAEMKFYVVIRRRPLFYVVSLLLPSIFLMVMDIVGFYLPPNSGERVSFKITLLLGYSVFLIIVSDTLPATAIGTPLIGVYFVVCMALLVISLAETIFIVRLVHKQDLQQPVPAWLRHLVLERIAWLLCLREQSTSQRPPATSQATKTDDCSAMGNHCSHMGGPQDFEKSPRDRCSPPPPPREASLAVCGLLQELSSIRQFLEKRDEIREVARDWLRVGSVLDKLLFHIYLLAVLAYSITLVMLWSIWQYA

[16] = biological target: Serine/threonine-protein kinase STK11 (Homo sapiens) (UniProt Q15831); details: Compound concentration 1000.0 nM
[17] = biological target: MAP/microtubule affinity-regulating kinase 4 (Homo sapiens) (UniProt Q96L34); details: Compound concentration 1000.0 nM
[18] = biological target: Serine/threonine-protein kinase PAK 2 (Homo sapiens) (UniProt Q13177); details: Compound concentration 1000.0 nM
[19] = biological target: Voltage-dependent N-type calcium channel subunit alpha-1B (Rattus norvegicus) (UniProt Q02294); assay: CA+/N/RA Eurofins-Panlabs selectivity data (BI); details: Compound concentration 10.0 uM
[20] = biological target: 5-hydroxytryptamine receptor 2B (Homo sapiens) (UniProt P41595); details: Compound concentration 10.0 uM
[21] = biological target: Muscarinic acetylcholine receptor M4 (Homo sapiens) (UniProt P08173); details: Compound concentration 10.0 uM
[22] = biological target: Tyrosine-protein kinase Fes/Fps (Homo sapiens) (UniProt P07332); details: Compound concentration 1000.0 nM
[23] = biological target: Calcium/calmodulin-dependent protein kinase type II subunit beta (Homo sapiens) (UniProt Q13554); details: Compound concentration 1000.0 nM
[24] = biological target: Calcium/calmodulin-dependent protein kinase type IV (Homo sapiens) (UniProt Q16566); details: Compound concentration 1000.0 nM
[25] = biological target: Histamine H3 receptor (Homo sapiens) (UniProt Q9Y5N1); assay: H3/H Eurofins-Panlabs selectivity data (BI); details: Compound concentration 10.0 uM
[26] = biological target: 5-hydroxytryptamine receptor 6 (Homo sapiens) (UniProt P50406); assay: 5HT6/HU Eurofins-Panlabs selectivity data (BI); details: Compound concentration 10.0 uM
[27] = biological target: Delta-type opioid receptor (Homo sapiens) (UniProt P41143); details: Compound concentration 10.0 uM
[28] = biological target: Epidermal growth factor receptor (Homo sapiens) (UniProt P00533); details: Compound concentration 1000.0 nM
[29] = biological target: Glutamate receptor ionotropic, NMDA 1 (Rattus norvegicus) (UniProt P35439); assay: GLUTAMAT/R Eurofins-Panlabs selectivity data (BI); details: Compound concentration 10.0 uM
[30] = biological target: Acetylcholine receptor subunit alpha (Homo sapiens) (UniProt P02708); assay: NACH/H Eurofins-Panlabs selectivity data (BI); details: Compound concentration 10.0 uM
[31] = biological target: Adrenergic receptor alpha-2 (Rattus norvegicus) (UniProt P22086+P19328+P22909); assay: ALPHA2/R Eurofins-Panlabs selectivity data (BI); assay type: protein assay; details: Compound concentration 10.0 uM
[32] = biological target: Serine/threonine-protein kinase B-raf (Homo sapiens) (UniProt P15056); details: Compound concentration 1000.0 nM
[33] = biological target: Gamma-aminobutyric acid receptor subunit alpha-1 (Rattus norvegicus) (UniProt P62813); assay: GABAACL+ Eurofins-Panlabs selectivity data (BI); details: Compound concentration 10.0 uM
[34] = biological target: Muscarinic acetylcholine receptor (Rattus norvegicus) (UniProt P08482+P08483+P08485+P08911+P10980); assay: MUSCARIN/NS Eurofins-Panlabs selectivity data (BI); assay type: protein assay; details: Compound concentration 10.0 uM
[35] = biological target: Alpha-1D adrenergic receptor (Homo sapiens) (UniProt P25100); details: Compound concentration 10.0 uM

Sequence of Sodium channel regulatory subunit beta-1 (Rattus norvegicus) (Q00954 whole entry): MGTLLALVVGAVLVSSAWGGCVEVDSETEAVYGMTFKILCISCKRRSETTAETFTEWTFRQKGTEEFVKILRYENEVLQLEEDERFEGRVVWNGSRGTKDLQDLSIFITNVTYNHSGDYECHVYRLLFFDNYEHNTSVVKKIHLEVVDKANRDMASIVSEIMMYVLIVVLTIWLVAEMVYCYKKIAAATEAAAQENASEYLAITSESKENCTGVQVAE
Sequence of 5-hydroxytryptamine receptor 2B (Homo sapiens) (P41595 whole entry): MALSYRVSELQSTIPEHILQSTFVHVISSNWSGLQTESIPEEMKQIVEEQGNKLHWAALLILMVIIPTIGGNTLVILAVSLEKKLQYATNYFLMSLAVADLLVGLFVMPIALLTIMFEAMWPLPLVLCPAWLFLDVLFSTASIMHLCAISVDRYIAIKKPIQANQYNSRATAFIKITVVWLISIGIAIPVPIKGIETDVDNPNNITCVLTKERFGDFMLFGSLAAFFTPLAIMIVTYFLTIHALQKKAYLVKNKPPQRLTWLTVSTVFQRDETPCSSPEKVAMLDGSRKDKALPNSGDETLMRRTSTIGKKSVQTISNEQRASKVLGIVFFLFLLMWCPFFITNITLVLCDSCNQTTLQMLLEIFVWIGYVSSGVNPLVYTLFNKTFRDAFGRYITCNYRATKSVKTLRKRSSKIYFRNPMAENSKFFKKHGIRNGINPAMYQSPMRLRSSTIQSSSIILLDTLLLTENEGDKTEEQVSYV
Sequence of BDNF/NT-3 growth factors receptor (Homo sapiens) (Q16620 32-822 limits assumed): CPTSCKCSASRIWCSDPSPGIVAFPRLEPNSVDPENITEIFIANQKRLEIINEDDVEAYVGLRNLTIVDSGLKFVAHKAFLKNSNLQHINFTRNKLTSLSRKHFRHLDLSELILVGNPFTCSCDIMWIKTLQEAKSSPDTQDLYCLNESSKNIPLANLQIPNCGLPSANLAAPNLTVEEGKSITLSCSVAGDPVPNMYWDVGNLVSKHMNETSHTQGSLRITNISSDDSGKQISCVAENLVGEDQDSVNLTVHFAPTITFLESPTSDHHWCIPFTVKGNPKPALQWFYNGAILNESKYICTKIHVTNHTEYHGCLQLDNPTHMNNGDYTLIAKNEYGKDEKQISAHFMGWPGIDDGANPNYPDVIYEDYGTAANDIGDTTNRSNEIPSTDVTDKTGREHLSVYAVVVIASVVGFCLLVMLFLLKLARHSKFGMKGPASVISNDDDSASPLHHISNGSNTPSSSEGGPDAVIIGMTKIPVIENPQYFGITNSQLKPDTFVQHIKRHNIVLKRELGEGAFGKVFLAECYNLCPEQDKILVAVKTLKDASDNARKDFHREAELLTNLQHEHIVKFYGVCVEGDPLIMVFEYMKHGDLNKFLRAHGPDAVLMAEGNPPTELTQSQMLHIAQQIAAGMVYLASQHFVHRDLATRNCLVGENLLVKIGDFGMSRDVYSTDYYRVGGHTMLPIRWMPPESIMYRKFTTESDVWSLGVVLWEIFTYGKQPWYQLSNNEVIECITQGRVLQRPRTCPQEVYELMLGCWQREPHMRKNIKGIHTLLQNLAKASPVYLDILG
Sequence of Casein kinase II subunit alpha (Homo sapiens) (P68400 whole entry, looked up): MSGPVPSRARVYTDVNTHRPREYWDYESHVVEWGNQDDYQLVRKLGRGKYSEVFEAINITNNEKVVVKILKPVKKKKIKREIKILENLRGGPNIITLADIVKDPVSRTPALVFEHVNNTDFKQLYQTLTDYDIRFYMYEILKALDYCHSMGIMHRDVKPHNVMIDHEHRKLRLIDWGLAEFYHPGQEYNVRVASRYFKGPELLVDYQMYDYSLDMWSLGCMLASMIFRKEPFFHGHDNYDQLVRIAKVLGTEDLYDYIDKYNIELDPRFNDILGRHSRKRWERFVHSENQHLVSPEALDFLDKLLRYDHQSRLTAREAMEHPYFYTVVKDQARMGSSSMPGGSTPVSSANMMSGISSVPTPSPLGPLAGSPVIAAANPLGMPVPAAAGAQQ
Sequence of Mitogen-activated protein kinase kinase kinase 19 (Homo sapiens) (Q56UN5 whole entry): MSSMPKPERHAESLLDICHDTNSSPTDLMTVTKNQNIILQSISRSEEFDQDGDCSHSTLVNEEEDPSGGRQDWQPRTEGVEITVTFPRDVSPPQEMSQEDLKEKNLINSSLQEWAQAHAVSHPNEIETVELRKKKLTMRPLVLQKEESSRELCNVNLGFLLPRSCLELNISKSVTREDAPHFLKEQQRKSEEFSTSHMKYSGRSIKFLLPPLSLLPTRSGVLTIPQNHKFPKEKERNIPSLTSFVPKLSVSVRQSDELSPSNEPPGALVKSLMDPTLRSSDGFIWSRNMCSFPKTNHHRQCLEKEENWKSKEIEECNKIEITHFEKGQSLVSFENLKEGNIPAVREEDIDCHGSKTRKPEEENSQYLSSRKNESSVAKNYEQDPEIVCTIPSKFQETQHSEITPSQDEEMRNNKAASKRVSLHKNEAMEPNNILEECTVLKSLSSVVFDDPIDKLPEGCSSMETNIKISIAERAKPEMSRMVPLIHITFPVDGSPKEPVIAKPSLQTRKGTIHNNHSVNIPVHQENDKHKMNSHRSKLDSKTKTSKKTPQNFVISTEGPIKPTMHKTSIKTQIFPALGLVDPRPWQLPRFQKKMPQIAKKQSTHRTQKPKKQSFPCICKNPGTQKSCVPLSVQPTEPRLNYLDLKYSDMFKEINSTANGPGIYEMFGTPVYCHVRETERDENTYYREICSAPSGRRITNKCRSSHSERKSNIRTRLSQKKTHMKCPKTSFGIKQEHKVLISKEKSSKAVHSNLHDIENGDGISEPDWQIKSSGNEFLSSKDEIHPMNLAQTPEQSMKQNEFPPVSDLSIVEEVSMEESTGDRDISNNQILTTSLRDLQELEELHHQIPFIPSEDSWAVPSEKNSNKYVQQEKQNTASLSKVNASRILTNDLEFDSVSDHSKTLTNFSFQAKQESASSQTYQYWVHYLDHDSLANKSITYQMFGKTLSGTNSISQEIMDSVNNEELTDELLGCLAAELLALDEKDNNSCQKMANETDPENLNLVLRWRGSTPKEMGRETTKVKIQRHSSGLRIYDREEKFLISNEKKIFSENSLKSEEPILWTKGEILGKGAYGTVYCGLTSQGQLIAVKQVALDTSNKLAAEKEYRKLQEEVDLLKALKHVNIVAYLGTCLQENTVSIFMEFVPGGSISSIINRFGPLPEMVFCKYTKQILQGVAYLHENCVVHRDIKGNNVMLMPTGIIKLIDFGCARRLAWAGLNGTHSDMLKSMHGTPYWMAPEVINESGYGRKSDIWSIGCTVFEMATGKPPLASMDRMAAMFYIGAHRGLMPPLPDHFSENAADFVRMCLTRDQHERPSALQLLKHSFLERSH
Sequence of Serine/threonine-protein kinase STK11 (Homo sapiens) (Q15831 whole entry): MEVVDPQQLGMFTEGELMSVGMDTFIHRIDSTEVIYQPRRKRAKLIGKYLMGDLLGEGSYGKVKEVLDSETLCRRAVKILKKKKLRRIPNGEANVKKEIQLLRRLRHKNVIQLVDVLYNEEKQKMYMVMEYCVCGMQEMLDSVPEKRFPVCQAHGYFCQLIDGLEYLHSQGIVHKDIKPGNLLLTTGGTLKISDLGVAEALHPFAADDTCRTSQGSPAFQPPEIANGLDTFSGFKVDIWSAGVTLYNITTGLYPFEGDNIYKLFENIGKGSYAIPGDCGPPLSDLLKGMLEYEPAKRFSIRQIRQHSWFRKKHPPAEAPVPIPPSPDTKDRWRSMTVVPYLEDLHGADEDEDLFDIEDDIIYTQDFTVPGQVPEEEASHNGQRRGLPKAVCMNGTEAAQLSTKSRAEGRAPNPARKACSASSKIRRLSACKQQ
Sequence of Serine/threonine-protein kinase PAK 2 (Homo sapiens) (Q13177 whole entry): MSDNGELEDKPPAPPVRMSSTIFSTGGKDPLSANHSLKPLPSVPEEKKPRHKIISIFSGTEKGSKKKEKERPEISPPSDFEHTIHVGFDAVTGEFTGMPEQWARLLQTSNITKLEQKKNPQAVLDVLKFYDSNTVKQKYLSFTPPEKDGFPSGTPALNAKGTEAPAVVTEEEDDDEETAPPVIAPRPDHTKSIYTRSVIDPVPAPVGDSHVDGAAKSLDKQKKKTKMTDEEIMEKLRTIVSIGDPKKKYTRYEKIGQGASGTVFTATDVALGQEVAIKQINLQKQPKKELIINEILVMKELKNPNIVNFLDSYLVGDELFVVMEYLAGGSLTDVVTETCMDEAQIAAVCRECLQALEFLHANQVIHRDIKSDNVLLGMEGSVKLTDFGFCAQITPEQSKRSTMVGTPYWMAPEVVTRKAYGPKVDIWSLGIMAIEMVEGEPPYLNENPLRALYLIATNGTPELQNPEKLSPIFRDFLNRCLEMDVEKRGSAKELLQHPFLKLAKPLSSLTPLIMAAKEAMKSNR
Sequence of Delta-type opioid receptor (Homo sapiens) (P41143 whole entry): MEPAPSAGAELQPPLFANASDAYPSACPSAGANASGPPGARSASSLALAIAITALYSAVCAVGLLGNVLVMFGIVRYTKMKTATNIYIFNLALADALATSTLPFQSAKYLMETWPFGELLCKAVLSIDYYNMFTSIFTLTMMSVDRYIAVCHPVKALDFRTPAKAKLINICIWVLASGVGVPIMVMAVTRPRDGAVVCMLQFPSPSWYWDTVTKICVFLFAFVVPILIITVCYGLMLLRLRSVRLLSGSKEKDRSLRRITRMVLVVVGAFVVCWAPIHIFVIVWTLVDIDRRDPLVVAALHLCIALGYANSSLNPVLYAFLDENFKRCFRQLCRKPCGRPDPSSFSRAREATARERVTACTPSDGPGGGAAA
Sequence of Calcium/calmodulin-dependent protein kinase type IV (Homo sapiens) (Q16566 whole entry): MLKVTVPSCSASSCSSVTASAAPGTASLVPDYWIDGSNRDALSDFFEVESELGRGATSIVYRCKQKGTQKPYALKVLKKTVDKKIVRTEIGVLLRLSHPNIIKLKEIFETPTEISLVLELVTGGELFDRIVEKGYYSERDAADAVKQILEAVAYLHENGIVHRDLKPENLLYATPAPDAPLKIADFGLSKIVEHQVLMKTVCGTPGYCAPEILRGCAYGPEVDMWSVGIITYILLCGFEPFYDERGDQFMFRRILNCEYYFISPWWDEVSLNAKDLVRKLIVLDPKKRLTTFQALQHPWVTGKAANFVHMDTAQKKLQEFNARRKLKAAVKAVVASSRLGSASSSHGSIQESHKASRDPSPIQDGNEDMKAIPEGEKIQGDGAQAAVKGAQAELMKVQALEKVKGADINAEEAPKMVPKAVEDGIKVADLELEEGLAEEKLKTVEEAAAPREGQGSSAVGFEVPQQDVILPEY

C[C@H](NC(=O)c1cnc2n1[C@](C)(Cc1ccc(C#N)cc1)C(=O)N2c1cc(Cl)c(F)c(Cl)c1)C(=O)NC1(c2ccccn2)CC1 [BI 1950]
residual activity [1]: 81% | residual activity [2]: 94% | residual activity [3]: 84% | inhibition [4]: 4.9% | residual activity [5]: 100% | residual activity [6]: 97% | activity at 10 µM [7]: 69% (not active) | residual activity ([8]; Compound concentration 0.03 uM): 103% | residual activity ([8]; Compound concentration 0.1 uM): 86% | residual activity ([8]; Compound concentration 0.3 uM): 84% | residual activity ([8]; Compound concentration 1.0 uM): 75% | residual activity ([8]; Compound concentration 3.0 uM): 67% | residual activity ([8]; Compound concentration 10.0 uM): 42% | residual activity [9]: 119% | residual activity [10]: 105% | residual activity [11]: 100% | residual activity [12]: 100% | residual activity [13]: 100% | residual activity [14]: 100% | residual activity [15]: 134% | residual activity [16]: 100% | residual activity [17]: 100% | residual activity [18]: 92% | residual activity [19]: 102% | inhibition [20]: 17.2% | inhibition [21]: 12.1% | residual activity [22]: 100% | residual activity [23]: 100% | residual activity [24]: 100% | residual activity [25]: 98% | residual activity [26]: 102% | inhibition [27]: -0.33% | residual activity [28]: 100% | residual activity [29]: 92% | residual activity [30]: 112% | residual activity [31]: 88% | residual activity [32]: 100% | residual activity [33]: 73% | residual activity [34]: 109%

C[C@@]1(Cc2ccc(C#N)cc2)C(=O)N(c2cc(Cl)cc(Cl)c2)c2ncc(C(=O)NC3(c4nc(C5CCC5)no4)CC3)n21 [BI 9446]
residual activity [1]: 91% | residual activity [2]: 93% | residual activity [5]: 100% | residual activity [6]: 89% | residual activity [11]: 100% | residual activity [12]: 100% | residual activity [13]: 100% | residual activity [14]: 100% | residual activity [16]: 100% | residual activity [17]: 100% | residual activity [18]: 64% | inhibition [20]: 15.5% | inhibition [21]: 21.6% | residual activity [22]: 100% | residual activity [23]: 90% | residual activity [24]: 100% | inhibition [27]: 8.3% | residual activity [28]: 100% | residual activity [32]: 100% | inhibition [35]: 8.28%

Reference: ChEMBL document CHEMBL4507282, “Data for DCP probe BI-1950” (2021)
